# Source: paper PMC11206987, “Investigation of the Efficacy of Benzylidene-3-methyl-2-thioxothiazolidin-4-one Analogs with Antioxidant Activities on the Inhibition of Mushroom and Mammal Tyrosinases” (Molecules, 2024)
# Assays:
# [1] = DPPH radical scavenging activity assay; settings: 500 µM
# Description: First, the ability of BMTTZD analogs 1–8 to scavenge DPPH radicals was examined using L-ascorbic acid (vitamin C; positive control). All samples were tested at 500 µM.
# The ability of the BMTTZD analogs to scavenge DPPH radicals was evaluated as previously reported. To each well of a 96-well plate containing analogs 1–8 (5 mM in […]; 20 µL) was added a DPPH solution (0.2 mM in methanol; 180 µL). The mixture was kept in a place without light for 30 min at 25°C to generate DPPH radicals. The well absorbance at 517 nm was measured utilizing a VersaMax® reader. The ability of the analogs to remove DPPH radicals was compared to that of vitamin C.
# mushroom tyrosinase = mushroom tyrosinase (Agaricus bisporus, UniProt C7FF04); experiment: Kinetic study of mushroom tyrosinase inhibition (Lineweaver–Burk and Dixon plots); format: biochemical
# mushroom tyrosinase, sequence (C7FF04 1-392): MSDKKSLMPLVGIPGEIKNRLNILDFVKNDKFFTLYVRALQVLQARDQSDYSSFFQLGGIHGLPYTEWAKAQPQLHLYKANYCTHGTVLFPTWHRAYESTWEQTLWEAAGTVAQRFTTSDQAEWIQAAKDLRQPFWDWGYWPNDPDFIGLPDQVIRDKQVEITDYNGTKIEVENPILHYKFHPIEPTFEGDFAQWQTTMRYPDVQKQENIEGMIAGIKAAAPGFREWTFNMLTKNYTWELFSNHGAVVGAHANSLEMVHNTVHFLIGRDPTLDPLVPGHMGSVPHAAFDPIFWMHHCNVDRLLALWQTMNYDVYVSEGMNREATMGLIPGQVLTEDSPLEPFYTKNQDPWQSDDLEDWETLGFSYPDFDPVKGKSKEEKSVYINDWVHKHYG
# Description: The initial rate of dopachrome generation was examined at various BMTTZD analog concentrations (0, 1.5, 3, and 6 µM for analog 1; 0, 2, 4, and 8 µM for analogs 2 and 5; and 0, 0.05, 0.1, and 0.2 µM for 3) with 0.5, 1, 2, 4, 8, or 16 mM L-dopa as substrates using mushroom tyrosinase. Plotting the reciprocal of the dopachrome formation rate against the inverse of the L-dopa concentration produced Lineweaver–Burk plots (Figure 2). Each Lineweaver–Burk plot created four straight lines with different slopes. For analogs 1 and 3, the four straight lines met at a point on the y-axis, whereas for analogs 2 and 5, the four straight lines converged at a point in the second quadrant.
# The Dixon plots produced lines that met in the second quadrant. The x-coordinate of the convergence position represents the inhibition constant (Ki) of the ligand.
# Lineweaver–Burk (L-B) plots were acquired for the kinetic analysis of analogs against mushroom tyrosinase as previously described. In brief, 10 µL of a solution of DMSO and BMTTZD analogs 1–3 or 5 (final concentrations: 0, 1.5, 3, and 6 µM for analog 1; 0, 2, 4, and 8 µM for analogs 2 and 5; and 0, 0.05, 0.1, and 0.2 µM for analog 3) in each well of a 96-well plate was mixed with 20 µL of aqueous mushroom tyrosinase solution (200 units/mL) and 170 µL of an aqueous substrate mixture (various concentrations of L-dopa (final concentrations: 16, 8, 4, 2, 1 and 0.5 mM) and 17.2 mM sodium phosphate buffer (pH 6.5)). During incubation (15 min at 37 °C), the increase in the well absorbance (ΔOD475/min) was calculated at 1 min intervals utilizing a VersaMax® reader.
# B16F10 cells = experiment: Cell cytotoxicity test (EZ-Cytox); format: cell-based, murine; settings: 2.5–20 µM, 48 and 72 h
# Description: Because analogs 1–3 and 5 exerted potent mushroom tyrosinase inhibitory activities, their effects on anti-melanogenic and cellular tyrosinase activities were evaluated in B16F10 murine cells. Prior to examining their cellular activity, their cell viabilities were investigated. Cell viability was evaluated at 48 and 72 h after treatment with five different concentrations of analogs.
# The effect on B16F10 cytotoxicity was assessed following a previously described method. Cells (1 × 10^4 cells/well of a 96-well plate) were cultivated for 24 h with 5% CO2 at 37 °C. The cells were exposed to the BMTTZD analogs (test concentrations: 20, 10, 5, 2.5, and 0 µM) and cultivated with 5% CO2 at 37 °C for 72 h. An EZ-Cytox solution (10 µL; EZ-500, DoGenBio, Seoul, Republic of Korea) was exposed to each well, and the plate was cultivated for 2 h. Cell viability was calculated from the well absorbance measured at 450 nm utilizing a reader (VersaMax®).
smiles,measurement,setting,value
"CN1C(=O)/C(=C/c2ccc(O)cc2O)SC1=S [Analog 3, (Z)-5-(2,4-Dihydroxybenzylidene)-3-methyl-2-thioxothiazolidin-4-one]",DPPH radical scavenging activity,[1],82%
same,type of tyrosinase inhibition (Lineweaver–Burk plots),mushroom tyrosinase; substrate L-dopa 0.5–16 mM,competitive inhibitors
same,Ki,"mushroom tyrosinase; substrate L-dopa, read-out: inhibition constant (Ki) from Dixon plots",47 nM
same,cytotoxicity (cell viability),B16F10 cells,did not exhibit cytotoxicity at ≤20 µM
